Read-outs that look alike come from different tables or passages of the source.
Columns and labels:
Assay type in all cases: cell-based
[1] = test system: MDA-MB-231; assay: cells; conditions: Homo sapiens, read-out: IC50 (nM) MDA-MB-231
Protocol: (§1) MDA-MB-231, OV90, and NCI-N87 cells at defined cell densities (1,500 cells per well, 80 µL volume) were seeded into 96-well plates. The cells were cultured overnight in a constant-temperature incubator (37°C, 5% CO2). Ecteinascidin derivative solutions at a maximum concentration of 2 mM were first prepared in DMSO, and serial 1:4 gradient dilutions were performed. 1 µL of each DMSO-prepared dilution was added to 99 µL of PBS containing 10% FBS per well and mixed thoroughly. The diluted solutions (2 µL of diluted solution and 18 µL of PBS containing 10% FBS per well) were then co-incubated with the cells (37°C, 5% CO2) for five days, after which CellTiter-Glo reagent (40 µL per well) was added, and […] values were measured using an i3x microplate reader.

[2] = test system: NCI-N87; assay: cells; conditions: Homo sapiens, read-out: IC50 (nM) NCI-N87
Protocol: as §1

[3] = test system: OV90; assay: cells; conditions: Homo sapiens, OV-90, 120 h, read-out: IC50 (nM) OV90
Protocol: as §1

[4] = test system: MDA-MB-231, OV90, and NCI-N87 cells; assay: Tumor cell proliferation inhibition assay of novel ecteinascidin derivatives, summary over the three cell lines; conditions: compared with trabectedin and lurbinectedin
Protocol: as §1, with “The” for “MDA-MB-231, OV90, and NCI-N87 cells at defined cell densities (1,500 cells per well, 80 µL volume) were seeded into 96-well plates. The”

[5] = 120 h, MDA-MB-231 cells, five days co-incubation
[6] = 120 h, NCI-N87 cells, five days co-incubation
[7] = OV90 cells, five days co-incubation

Structure (SMILES) | IC50 [1, 5] [nM] | IC50 [2, 6] [nM] | IC50 [3, 7] [nM] | in-vitro cytotoxic activities [4] | IC50 ([1]; MDA-MB-231, 120 h) [nM] | IC50 ([2]; NCI-N87, 120 h) [nM] | IC50 [3] [nM]
COc1cc2c(cc1O)C(N)CN[C@]21CS[C@@H]2c3c(OC(C)=O)c(C)c4c(c3[C@H](COC1=O)N1[C@@H]2[C@H]2c3c(cc(C)c(OC)c3O)C[C@@H]([C@@H]1C#N)N2C)OCO4 (stereo partly shown) [T2] | 1 to 10 | 10 to 200 | 10 to 200 | – | – | – | –
COc1c(C)cc2c(c1O)[C@@H]1[C@@H]3[C@@H]4SC[C@]5(NC[C@@H](O)c6cc(N)ccc65)C(=O)OC[C@@H](c5c6c(c(C)c(OC(C)=O)c54)OCO6)N3[C@@H](C#N)[C@H](C2)N1C [P9] | < 1 | < 1 | < 1 | superior to or comparable to those of trabectedin and lurbinectedin | – | – | –
COc1cc2c(cc1N)C(C)(C)CN[C@]21CS[C@@H]2c3c(OC(C)=O)c(C)c4c(c3[C@H](COC1=O)N1[C@@H]2[C@H]2c3c(cc(C)c(OC)c3O)C[C@@H]([C@@H]1C#N)N2C)OCO4 [P19] | < 1 | < 1 | < 1 | superior to or comparable to those of trabectedin and lurbinectedin | – | – | –
COc1c(C)cc2c(c1O)[C@@H]1[C@@H]3[C@@H]4SC[C@]5(NCC(C)(C)c6cc(N)c(F)cc65)C(=O)OC[C@@H](c5c6c(c(C)c(OC(C)=O)c54)OCO6)N3[C@@H](C#N)[C@H](C2)N1C [T3] | < 1 | < 1 | < 1 | superior to or comparable to those of trabectedin and lurbinectedin | – | – | –
COc1c(C)cc2c(c1O)[C@@H]1[C@@H]3[C@@H]4SC[C@]5(NCCc6cc(N)c(N(C)C)cc65)C(=O)OC[C@@H](c5c6c(c(C)c(OC(C)=O)c54)OCO6)N3[C@@H](C#N)[C@H](C2)N1C [P5] | – | – | – | – | 1 to 10 | 1 to 10 | 1 to 10
COc1c(C)cc2c(c1O)[C@@H]1[C@@H]3[C@@H]4SC[C@]5(NCC(C)(C)c6c5ccc(N)c6OC)C(=O)OC[C@@H](c5c6c(c(C)c(OC(C)=O)c54)OCO6)N3[C@@H](C#N)[C@H](C2)N1C [T18] | < 1 | < 1 | 1 to 10 | – | – | – | –
COc1cc2c(cc1N)[C@H](CC1CC1)CN[C@]21CS[C@@H]2c3c(OC(C)=O)c(C)c4c(c3[C@H](COC1=O)N1[C@@H]2[C@H]2c3c(cc(C)c(OC)c3O)C[C@@H]([C@@H]1C#N)N2C)OCO4 [P261] | 1 to 10 | 10 to 200 | 10 to 200 | – | – | – | –
COc1c(C)cc2c(c1O)[C@@H]1[C@@H]3[C@@H]4SC[C@]5(NCCc6cc(NC(=O)[C@H]7C[C@@H](O)C7)c(F)cc65)C(=O)OC[C@@H](c5c6c(c(C)c(OC(C)=O)c54)OCO6)N3[C@@H](C#N)[C@H](C2)N1C [T5] | < 1 | 1 to 10 | < 1 | – | – | – | –
COc1c(C)cc2c(c1O)[C@@H]1[C@@H]3[C@@H]4SC[C@]5(NCCc6c5ccc(N)c6OC)C(=O)OC[C@@H](c5c6c(c(C)c(OC(C)=O)c54)OCO6)N3[C@@H](C#N)[C@H](C2)N1C [P166] | < 1 | < 1 | < 1 | superior to or comparable to those of trabectedin and lurbinectedin | – | – | –
COc1cc2c(cc1N)[C@@H](CC1CC1)CN[C@]21CS[C@@H]2c3c(OC(C)=O)c(C)c4c(c3[C@H](COC1=O)N1[C@@H]2[C@H]2c3c(cc(C)c(OC)c3O)C[C@@H]([C@@H]1C#N)N2C)OCO4 [P262] | 1 to 10 | 1 to 10 | 1 to 10 | – | – | – | –
COc1ccc2[nH]c3c(c2c1)CCN[C@]31CS[C@@H]2c3c(OC(C)=O)c(C)c4c(c3[C@H](COC1=O)N1[C@@H]2[C@H]2c3c(cc(C)c(OC)c3O)C[C@@H]([C@@H]1O)N2C)OCO4 [Lurbinectedin, reference compound] | 1 to 10 | < 1 | 1 to 10 | – | – | – | –
COc1cc2c(cc1NC(=O)CO)C1(CC1)CN[C@]21CS[C@@H]2c3c(OC(C)=O)c(C)c4c(c3[C@H](COC1=O)N1[C@@H]2[C@H]2c3c(cc(C)c(OC)c3O)C[C@@H]([C@@H]1C#N)N2C)OCO4 [T11] | < 1 | < 1 | < 1 | – | – | – | –
COc1c(C)cc2c(c1O)[C@@H]1[C@@H]3[C@@H]4SC[C@]5(NCCc6cc(NC(=O)CO)c(O)cc65)C(=O)OC[C@@H](c5c6c(c(C)c(OC(C)=O)c54)OCO6)N3[C@@H](C#N)[C@H](C2)N1C [T9] | 1 to 10 | 1 to 10 | 1 to 10 | – | – | – | –
COc1cc2c(cc1N)[C@@H](OS(=O)(=O)O)CN[C@]21CS[C@@H]2c3c(OC(C)=O)c(C)c4c(c3[C@H](COC1=O)N1[C@@H]2[C@H]2c3c(cc(C)c(OC)c3O)C[C@@H]([C@@H]1C#N)N2C)OCO4 [P14] | > 200 | > 200 | > 200 | – | – | – | –
COc1c(C)cc2c(c1O)[C@@H]1[C@@H]3[C@@H]4SC[C@]5(NCCc6cc(NC(=O)CO)cc(O)c65)C(=O)OC[C@@H](c5c6c(c(C)c(OC(C)=O)c54)OCO6)N3[C@@H](C#N)[C@H](C2)N1C [T13] | 10 to 200 | 10 to 200 | 10 to 200 | – | – | – | –
COc1c(C)cc2c(c1O)[C@@H]1[C@@H]3[C@@H]4SC[C@]5(NCCc6cc(N)cc(O)c65)C(=O)OC[C@@H](c5c6c(c(C)c(OC(C)=O)c54)OCO6)N3[C@@H](C#N)[C@H](C2)N1C [T12] | 1 to 10 | 1 to 10 | 1 to 10 | – | – | – | –
COc1cc2c(cc1NC(=O)CO)CCN(C)[C@]21CS[C@@H]2c3c(OC(C)=O)c(C)c4c(c3[C@H](COC1=O)N1[C@@H]2[C@H]2c3c(cc(C)c(OC)c3O)C[C@@H]([C@@H]1C#N)N2C)OCO4 [P90] | < 1 | < 1 | < 1 | – | – | – | –
COc1c(C)cc2c(c1O)[C@@H]1[C@@H]3[C@@H]4SC[C@]5(NCCc6cc(N)c(OC)c(OC)c65)C(=O)OC[C@@H](c5c6c(c(C)c(OC(C)=O)c54)OCO6)N3[C@@H](C#N)[C@H](C2)N1C [T14] | 1 to 10 | 10 to 200 | 10 to 200 | – | – | – | –
COc1c(C)cc2c(c1O)[C@@H]1[C@@H]3[C@@H]4SC[C@]5(NCCc6c5ccc(N)c6O)C(=O)OC[C@@H](c5c6c(c(C)c(OC(C)=O)c54)OCO6)N3[C@@H](C#N)[C@H](C2)N1C [T6] | 1 to 10 | 1 to 10 | 1 to 10 | – | – | – | –
COc1c(C)cc2c(c1O)[C@@H]1[C@@H]3[C@@H]4SC[C@]5(NCCc6cc(N)c(O)cc65)C(=O)OC[C@@H](c5c6c(c(C)c(OC(C)=O)c54)OCO6)N3[C@@H](C#N)[C@H](C2)N1C [T8] | 1 to 10 | 1 to 10 | 1 to 10 | – | – | – | –
COc1c(C)cc2c(c1O)[C@@H]1[C@@H]3[C@@H]4SC[C@]5(NCCc6cc(NC(=O)CO)c(OC)c(OC)c65)C(=O)OC[C@@H](c5c6c(c(C)c(OC(C)=O)c54)OCO6)N3[C@@H](C#N)[C@H](C2)N1C [T15] | 10 to 200 | 10 to 200 | 10 to 200 | – | – | – | –
CNc1cc2c(cc1OC)[C@@]1(CS[C@@H]3c4c(OC(C)=O)c(C)c5c(c4[C@H](COC1=O)N1[C@@H]3[C@H]3c4c(cc(C)c(OC)c4O)C[C@@H]([C@@H]1C#N)N3C)OCO5)NCC2 [T16] | 1 to 10 | < 1 | 1 to 10 | – | – | – | –
COc1c(C)cc2c(c1O)[C@@H]1[C@@H]3[C@@H]4SC[C@]5(NCCc6c5ccc(NC(=O)CO)c6O)C(=O)OC[C@@H](c5c6c(c(C)c(OC(C)=O)c54)OCO6)N3[C@@H](C#N)[C@H](C2)N1C [T7] | 1 to 10 | 1 to 10 | 1 to 10 | – | – | – | –

Source: patent publication EP4778932A1 (priority 2023, dated 2025)
